# Experimental data taken from ChEMBL document CHEMBL4837270, “2-Trifluoromethylthiazole-5-carboxamides: Analogues of a Stilbene-Based Anti-HIV Agent that Impact HIV mRNA Processing” (ACS Med Chem Lett, 2021).
# Active and inactive are the calls of the source. The calls are words filed in the database; no cut-off is given here.
# Experiments:
# [1] = test system: Human immunodeficiency virus 1; assay: Antiviral activity against HIV1 NL4-3 infected in human CEM-GXR cells assessed as inhibition of viral replication at 1.25 to 10 uM measured after 3 days by Flowcytometry assay; assay type: functional, organism-based; details: dose 1.25-10 µM, time 3.0 day
# [2] = Cytotoxicity against human CEM-GXR cells infected with HIV1 NL4-3 assessed as cell viability measured after 3 days by Flowcytometry assay; assay type: cell-based; details: 72 h
# [3] = Cytotoxicity against human CEM-GXR cells infected with HIV1 NL4-3 assessed as cell viability at 1.25 to 10 uM measured after 3 days by Flowcytometry assay; assay type: cell-based; details: 72 h, dose 1.25-10 µM, time 3 day
# [4] = test system: Human immunodeficiency virus; assay: Antiviral activity against HIV; assay type: functional, organism-based; details: Human immunodeficiency virus 1
# [5] = Anti-HIV activity against HIV1 3B infected in human PBMC assessed as inhibition of viral infection measured after 11 days by ELISA method; assay type: functional, cell-based; details: Human immunodeficiency virus 1, 3B, 264 h
# [6] = test system: Human immunodeficiency virus 1; assay: Anti-HIV activity against HIV1 Bal infected in human PBMC assessed as inhibition of viral infection measured after 11 days by ELISA method; assay type: functional, organism-based; details: Human immunodeficiency virus 1, Bal, 264 h
# [7] = Cytotoxicity against human CEM-GXR cells infected with wild type HIV1 97USSN54 assessed as cell viability measured after 72 hrs by Flow cytometry assay; assay type: cell-based
# [8] = test system: Human immunodeficiency virus 1; assay: Antiviral activity against wild type HIV1 NL4-3 infected in human CEM-GXR cells assessed as inhibition of viral replication measured after 3 days by Flowcytometry assay; assay type: functional, organism-based; details: Human immunodeficiency virus 1, NL4-3, CEM-GXR, 72 h
# [9] = Therapeutic index, ratio of CC50 for human CEM-GXR cells infected with wild type HIV1 97USSN54 to EC50 for wild type HIV1 97USSN54 infected in human CEM-GXR cells; assay type: toxicity, cell-based; details: read-out: TI
# [10] = Therapeutic index, ratio of CC50 for human CEM-GXR cells infected with wild type HIV1 NL4-3 to EC50 for wild type HIV1 NL4-3 infected in human CEM-GXR cells; assay type: toxicity, cell-based; details: read-out: TI
# [11] = test system: Human immunodeficiency virus 1; assay: Antiviral activity against wild type HIV1 97USSN54 infected in human CEM-GXR cells assessed as inhibition of viral replication measured after 3 days by Flowcytometry assay; assay type: functional, organism-based; details: Human immunodeficiency virus 1, 97USSN54, CEM-GXR, 72 h
# [12] = Cytotoxicity against human CEM-GXR cells infected with wild type HIV1 NL4-3 assessed as cell viability measured after 72 hrs by Flow cytometry assay; assay type: cell-based
# [13] = Cytotoxicity against human PBMC cells assessed as cell viability measured after 11 days by Viacount assay; assay type: cell-based; details: time 11 day
# [14] = test system: Human immunodeficiency virus 1; assay: Antiviral activity against antiretroviral-resistant HIV1 MVC-res harboring envelope V3 loop A19T/L20F/T22A/E25D/I26V mutant infected in human CEM-GXR cells assessed as inhibition of viral replication measured after 3 days by Flowcytometry assay; assay type: functional, organism-based
# [15] = Therapeutic index, ratio of CC50 for human CEM-GXR cells infected with HIV1 443 harboring reverse transcriptase K103N/D67N/K70R/Y115F/Q151M/M184V/K219Q mutant to EC50 for HIV1 443 harboring reverse transcriptase K103N/D67N/K70R/Y115F/Q151M/M184V/K219Q mutant; assay type: toxicity; details: read-out: TI
# [16] = Cytotoxicity against human CEM-GXR cells infected with wild type HIV1 11845 harboring […] G140S/Q148H mutant assessed as cell viability measured after 72 hrs by Flow cytometry assay; assay type: cell-based
# [17] = Cytotoxicity against human CEM-GXR cells infected with wild type HIV1 MVC-res harboring envelope V3 loop A19T/L20F/T22A/E25D/I26V mutant assessed as cell viability measured after 72 hrs by Flow cytometry assay; assay type: cell-based
# [18] = test system: Human immunodeficiency virus 1; assay: Antiviral activity against antiretroviral-resistant HIV1 11845 harboring integrase G140S/Q148H mutant infected in human CEM-GXR cells assessed as inhibition of viral replication measured after 3 days by Flowcytometry assay; assay type: functional, organism-based; details: Human immunodeficiency virus 1, 11845, CEM-GXR, 72 h
# [19] = Therapeutic index, ratio of CC50 for human CEM-GXR cells infected with HIV1 MVC-res harboring envelope V3 loop A19T/L20F/T22A/E25D/I26V mutant to EC50 for HIV1 MVC-res harboring envelope V3 loop A19T/L20F/T22A/E25D/I26V mutant infected in human CEM-GXR cells; assay type: toxicity, cell-based; details: read-out: TI
# [20] = test system: Human immunodeficiency virus 1; assay: Antiviral activity against antiretroviral-resistant HIV1 443 harboring reverse transcriptase K103N/D67N/K70R/Y115F/Q151M/M184V/K219Q mutant infected in human CEM-GXR cells assessed as inhibition of viral replication measured after 3 days by Flowcytometry assay; assay type: functional, organism-based; details: Human immunodeficiency virus 1, 443, CEM-GXR, 72 h
# [21] = Cytotoxicity against human CEM-GXR cells infected with HIV1 NL4-3 assessed as cell viability at 10 uM measured after 72 hrs by Flowcytometry assay; assay type: cell-based
# [22] = Therapeutic index, ratio of CC50 for human CEM-GXR cells infected with HIV1 11845 harboring integrase G140S/Q148H mutant to EC50 for HIV1 11845 harboring integrase G140S/Q148H mutant infected in human CEM-GXR cells; assay type: toxicity, cell-based; details: read-out: TI
# [23] = test system: Human immunodeficiency virus 1; assay: Antiviral activity against HIV1 NL4-3 infected in human CEM-GXR cells assessed as inhibition of viral replication measured after 3 days by Flowcytometry assay; assay type: functional, organism-based; details: Human immunodeficiency virus 1, NL4-3, CEM-GXR, 72 h
# [24] = Therapeutic index, ratio of CC50 for human CEM-GXR cells infected HIV1 2948 with harboring protease G48V/L90M mutant to EC50 for HIV1 2948 harboring protease G48V/L90M mutant infected in human CEM-GXR cells; assay type: toxicity, cell-based; details: read-out: TI
# [25] = Cytotoxicity against human CEM-GXR cells infected with wild type HIV1 443 harboring reverse transcriptase K103N/D67N/K70R/Y115F/Q151M/M184V/K219Q mutant assessed as cell viability measured after 72 hrs by Flow cytometry assay; assay type: cell-based
# [26] = Cytotoxicity against human CEM-GXR cells infected with wild type HIV1 2948 harboring protease G48V/L90M mutant assessed as cell viability measured after 72 hrs by Flow cytometry assay; assay type: cell-based
# [27] = test system: Human immunodeficiency virus 1; assay: Antiviral activity against antiretroviral-resistant HIV1 2948 harboring protease G48V/L90M mutant infected in human CEM-GXR cells assessed as inhibition of viral replication measured after 3 days by Flowcytometry assay; assay type: functional, organism-based; details: Human immunodeficiency virus 1, 2948, CEM-GXR, 72 h
# [28] = test system: Human immunodeficiency virus 1; assay: Anti-HIV activity against HIV1 provirus infected in HeLa cells assessed as reduction of GAG production in presence of Doxycycline measured after 24 hrs by GFP flourescence based plate reader method; assay type: functional, organism-based
# [29] = test system: Human immunodeficiency virus 1; assay: Antiviral activity against HIV1 infected in HeLa cells assessed as decrease of multiply spliced RNA levels at 1.25 uM measured after 24 hrs by RT-qPCR method; assay type: functional, organism-based
# [30] = test system: Human immunodeficiency virus 1; assay: Antiviral activity against HIV1 infected in HeLa cells assessed as decrease of singly spliced RNA levels at 1.25 uM measured after 24 hrs by RT-qPCR method; assay type: functional, organism-based
# [31] = test system: Human immunodeficiency virus 1; assay: Antiviral activity against HIV1 infected in HeLa cells assessed as decrease of unspliced RNA levels at 5 uM measured after 24 hrs by RT-qPCR method; assay type: functional, organism-based
# [32] = test system: Human immunodeficiency virus 1; assay: Antiviral activity against HIV1 infected in HeLa cells assessed as decrease of singly spliced RNA levels at 5 uM measured after 24 hrs by RT-qPCR method; assay type: functional, organism-based
# [33] = test system: Human immunodeficiency virus 1; assay: Antiviral activity against HIV1 infected in HeLa cells assessed as decrease of unspliced RNA levels at 1.25 uM measured after 24 hrs by RT-qPCR method; assay type: functional, organism-based
# HeLa = assay: Cytotoxicity against human HeLa cells infected with HIV1 assessed as cell viability upto 5 uM measured after 24 hrs by plate reader method; assay type: cell-based
# [34] = test system: Human immunodeficiency virus 1; assay: Antiviral activity against HIV1 infected in HeLa cells assessed as decrease of multiply spliced RNA levels at 5 uM measured after 24 hrs by RT-qPCR method; assay type: functional, organism-based
compound,measurement,setting,value
O=C(Nc1nc2ccc(C(F)(F)F)cc2s1)c1ccc([N+](=O)[O-])s1,Activity,[1],Active
same,EC50,[2],0.5 µM
O=C(Nc1nc2cc(Br)ccc2s1)c1ccc([N+](=O)[O-])s1,Activity,[1],Active
same,Activity,[3],Toxic
O=[N+]([O-])c1ccc(/C=C/c2ccc3ccccc3n2)s1,EC50,[4],0.5 µM
O=C(Nc1cccc2cccnc12)c1ccc([N+](=O)[O-])s1,Activity,[1],inactive
O=C(Nc1nc2c(Cl)cccc2s1)c1cccs1,Activity,[1],inactive
Nc1nc(=O)n([C@@H]2CS[C@H](CO)O2)cc1F [EMTRICITABINE],EC50,[5],0.0055 µM
same,EC50,[6],0.0021 µM
same,CC50 at 72 h,[7],> 100 µM
same,EC50,[8],0.03 µM
same,selectivity ratio,[9],> 3850
same,selectivity ratio,[10],> 2940
same,EC50,[11],0.03 µM
same,CC50 at 72 h,[12],> 100 µM
same,CC50 at 264 h,[13],> 10 µM
O=C(Nc1nc2ccc(Cl)cc2s1)c1ccc([N+](=O)[O-])s1,Activity,[1],Active
same,Activity,[3],Toxic
O=C(Nc1cncc2ccccc12)c1ccc([N+](=O)[O-])s1,Activity,[1],inactive
O=C(Nc1nsc2ccc([N+](=O)[O-])cc12)c1ccc([N+](=O)[O-])s1,Activity,[1],inactive
O=C(Nc1nc2c(Cl)cccc2s1)c1cnc(C(F)(F)F)s1,EC50,[5],1.93 µM
same,EC50,[6],0.24 µM
same,EC50,[14],0.97 µM
same,selectivity ratio,[15],83
same,CC50 at 72 h,[7],95.7 µM
same,CC50 at 72 h,[16],95.7 µM
same,CC50 at 72 h,[17],95.7 µM
same,EC50,[18],0.96 µM
same,EC50,[8],1.29 µM
same,selectivity ratio,[9],100
same,selectivity ratio,[19],99
same,EC50,[20],1.16 µM
same,Activity,[21],Non-Toxic
same,selectivity ratio,[10],74
same,EC50,[11],0.96 µM
same,selectivity ratio,[22],101
same,CC50 at 72 h,[12],95.7 µM
same,CC50 at 264 h,[13],9.08 µM
same,EC50,[23],1.66 µM
same,selectivity ratio,[24],82
same,CC50 at 72 h,[25],95.7 µM
same,CC50 at 72 h,[26],95.7 µM
same,EC50,[27],1.17 µM
N#Cc1ccc(C(=O)Nc2nc3c(Cl)cccc3s2)s1,EC50,[23],3 µM
O=C(Nc1ccc(C(F)(F)F)cc1)c1ccc([N+](=O)[O-])s1,Activity,[28],inactive
O=C(Nc1nc2c(Cl)cccc2s1)c1ccc([N+](=O)[O-])s1,Activity,[1],Active
same,EC50,[2],5.5 µM
O=C(Nc1cnc2ccccc2c1)c1ccc([N+](=O)[O-])s1,Activity,[1],inactive
O=C(Nc1nc2ccc([N+](=O)[O-])cc2s1)c1ccc([N+](=O)[O-])s1,Activity,[1],Active
same,EC50,[2],2.4 µM
Cc1ccc(C(=O)Nc2nc3c(Cl)cccc3s2)s1,Activity,[1],inactive
O=C(Nc1nc2c(Cl)cccc2s1)c1ccc(C(F)(F)F)s1,EC50,[23],5.5 µM
O=C(Nc1nc2ccc(OC(F)(F)F)cc2s1)c1ccc([N+](=O)[O-])s1,Activity,[1],Active
same,Activity,[3],Toxic
O=C(Nc1nc2c(Cl)cc(Cl)cc2s1)c1ccc([N+](=O)[O-])s1,Activity,[1],Active
same,Activity,[3],Toxic
O=C(Nc1nc2ccc(C(F)(F)F)cc2s1)c1cnc(C(F)(F)F)s1,EC50,[5],0.74 µM
same,Activity,[29],Active
same,EC50,[6],0.25 µM
same,EC50,[14],0.22 µM
same,Activity,[30],Active
same,selectivity ratio,[15],51
same,Activity,[31],inactive
same,Activity,[32],inactive
same,CC50 at 72 h,[7],12.1 µM
same,CC50 at 72 h,[16],12.1 µM
same,Activity,[33],Active
same,Activity,[28],Dose-Dependent Effect
same,CC50 at 72 h,[17],12.1 µM
same,EC50,[18],0.2 µM
same,EC50,[8],0.25 µM
same,selectivity ratio,[9],68
same,selectivity ratio,[19],56
same,Activity,HeLa,Toxic
same,EC50,[20],0.24 µM
same,selectivity ratio,[10],49
same,EC50,[11],0.18 µM
same,selectivity ratio,[22],59
same,CC50 at 72 h,[12],12.1 µM
same,CC50 at 264 h,[13],2.51 µM
same,Activity,[34],inactive
same,EC50,[23],0.47 µM
same,selectivity ratio,[24],52
same,CC50 at 72 h,[25],12.1 µM
same,CC50 at 72 h,[26],12.1 µM
same,EC50,[27],0.23 µM
O=C(Nc1cccc2ncccc12)c1ccc([N+](=O)[O-])s1,Activity,[1],inactive
